{
  "source": "patent US6555322B1",
  "about": "“α2-macroglobulin receptor as a receptor for CTGF” (FibroGen, Inc., priority 1999, dated 2003)",
  "key": {"[1]": {"system": "MG63 cells", "assay": "Internalization and degradation of 125I-rhCTGF during binding, with additives", "assay_type": "cell-based, human", "conditions": "for degraded/internalized 125I-CTGF with additive: both cultures (control and TGF-β treated)", "experimental": "Another experiment was performed in which the internalization and degradation of CTGF was followed during the time course of binding to the cells. Various additives were included in the binding medium to examine the effect(s) and specificity of CTGF binding and internalization through LRP.\nMG63 cells were plated and treated with TGF-β for 24 or 48 hours as in the previous experiment."}, "[2]": {"target": "T1, LRP (Mus musculus, UniProt Q91ZX7)", "T1 construct": "endogenous in cells; host or cells: BMS2 (BMS-2) murine bone marrow stromal cells", "T1 sequence (Q91ZX7 20-4545)": "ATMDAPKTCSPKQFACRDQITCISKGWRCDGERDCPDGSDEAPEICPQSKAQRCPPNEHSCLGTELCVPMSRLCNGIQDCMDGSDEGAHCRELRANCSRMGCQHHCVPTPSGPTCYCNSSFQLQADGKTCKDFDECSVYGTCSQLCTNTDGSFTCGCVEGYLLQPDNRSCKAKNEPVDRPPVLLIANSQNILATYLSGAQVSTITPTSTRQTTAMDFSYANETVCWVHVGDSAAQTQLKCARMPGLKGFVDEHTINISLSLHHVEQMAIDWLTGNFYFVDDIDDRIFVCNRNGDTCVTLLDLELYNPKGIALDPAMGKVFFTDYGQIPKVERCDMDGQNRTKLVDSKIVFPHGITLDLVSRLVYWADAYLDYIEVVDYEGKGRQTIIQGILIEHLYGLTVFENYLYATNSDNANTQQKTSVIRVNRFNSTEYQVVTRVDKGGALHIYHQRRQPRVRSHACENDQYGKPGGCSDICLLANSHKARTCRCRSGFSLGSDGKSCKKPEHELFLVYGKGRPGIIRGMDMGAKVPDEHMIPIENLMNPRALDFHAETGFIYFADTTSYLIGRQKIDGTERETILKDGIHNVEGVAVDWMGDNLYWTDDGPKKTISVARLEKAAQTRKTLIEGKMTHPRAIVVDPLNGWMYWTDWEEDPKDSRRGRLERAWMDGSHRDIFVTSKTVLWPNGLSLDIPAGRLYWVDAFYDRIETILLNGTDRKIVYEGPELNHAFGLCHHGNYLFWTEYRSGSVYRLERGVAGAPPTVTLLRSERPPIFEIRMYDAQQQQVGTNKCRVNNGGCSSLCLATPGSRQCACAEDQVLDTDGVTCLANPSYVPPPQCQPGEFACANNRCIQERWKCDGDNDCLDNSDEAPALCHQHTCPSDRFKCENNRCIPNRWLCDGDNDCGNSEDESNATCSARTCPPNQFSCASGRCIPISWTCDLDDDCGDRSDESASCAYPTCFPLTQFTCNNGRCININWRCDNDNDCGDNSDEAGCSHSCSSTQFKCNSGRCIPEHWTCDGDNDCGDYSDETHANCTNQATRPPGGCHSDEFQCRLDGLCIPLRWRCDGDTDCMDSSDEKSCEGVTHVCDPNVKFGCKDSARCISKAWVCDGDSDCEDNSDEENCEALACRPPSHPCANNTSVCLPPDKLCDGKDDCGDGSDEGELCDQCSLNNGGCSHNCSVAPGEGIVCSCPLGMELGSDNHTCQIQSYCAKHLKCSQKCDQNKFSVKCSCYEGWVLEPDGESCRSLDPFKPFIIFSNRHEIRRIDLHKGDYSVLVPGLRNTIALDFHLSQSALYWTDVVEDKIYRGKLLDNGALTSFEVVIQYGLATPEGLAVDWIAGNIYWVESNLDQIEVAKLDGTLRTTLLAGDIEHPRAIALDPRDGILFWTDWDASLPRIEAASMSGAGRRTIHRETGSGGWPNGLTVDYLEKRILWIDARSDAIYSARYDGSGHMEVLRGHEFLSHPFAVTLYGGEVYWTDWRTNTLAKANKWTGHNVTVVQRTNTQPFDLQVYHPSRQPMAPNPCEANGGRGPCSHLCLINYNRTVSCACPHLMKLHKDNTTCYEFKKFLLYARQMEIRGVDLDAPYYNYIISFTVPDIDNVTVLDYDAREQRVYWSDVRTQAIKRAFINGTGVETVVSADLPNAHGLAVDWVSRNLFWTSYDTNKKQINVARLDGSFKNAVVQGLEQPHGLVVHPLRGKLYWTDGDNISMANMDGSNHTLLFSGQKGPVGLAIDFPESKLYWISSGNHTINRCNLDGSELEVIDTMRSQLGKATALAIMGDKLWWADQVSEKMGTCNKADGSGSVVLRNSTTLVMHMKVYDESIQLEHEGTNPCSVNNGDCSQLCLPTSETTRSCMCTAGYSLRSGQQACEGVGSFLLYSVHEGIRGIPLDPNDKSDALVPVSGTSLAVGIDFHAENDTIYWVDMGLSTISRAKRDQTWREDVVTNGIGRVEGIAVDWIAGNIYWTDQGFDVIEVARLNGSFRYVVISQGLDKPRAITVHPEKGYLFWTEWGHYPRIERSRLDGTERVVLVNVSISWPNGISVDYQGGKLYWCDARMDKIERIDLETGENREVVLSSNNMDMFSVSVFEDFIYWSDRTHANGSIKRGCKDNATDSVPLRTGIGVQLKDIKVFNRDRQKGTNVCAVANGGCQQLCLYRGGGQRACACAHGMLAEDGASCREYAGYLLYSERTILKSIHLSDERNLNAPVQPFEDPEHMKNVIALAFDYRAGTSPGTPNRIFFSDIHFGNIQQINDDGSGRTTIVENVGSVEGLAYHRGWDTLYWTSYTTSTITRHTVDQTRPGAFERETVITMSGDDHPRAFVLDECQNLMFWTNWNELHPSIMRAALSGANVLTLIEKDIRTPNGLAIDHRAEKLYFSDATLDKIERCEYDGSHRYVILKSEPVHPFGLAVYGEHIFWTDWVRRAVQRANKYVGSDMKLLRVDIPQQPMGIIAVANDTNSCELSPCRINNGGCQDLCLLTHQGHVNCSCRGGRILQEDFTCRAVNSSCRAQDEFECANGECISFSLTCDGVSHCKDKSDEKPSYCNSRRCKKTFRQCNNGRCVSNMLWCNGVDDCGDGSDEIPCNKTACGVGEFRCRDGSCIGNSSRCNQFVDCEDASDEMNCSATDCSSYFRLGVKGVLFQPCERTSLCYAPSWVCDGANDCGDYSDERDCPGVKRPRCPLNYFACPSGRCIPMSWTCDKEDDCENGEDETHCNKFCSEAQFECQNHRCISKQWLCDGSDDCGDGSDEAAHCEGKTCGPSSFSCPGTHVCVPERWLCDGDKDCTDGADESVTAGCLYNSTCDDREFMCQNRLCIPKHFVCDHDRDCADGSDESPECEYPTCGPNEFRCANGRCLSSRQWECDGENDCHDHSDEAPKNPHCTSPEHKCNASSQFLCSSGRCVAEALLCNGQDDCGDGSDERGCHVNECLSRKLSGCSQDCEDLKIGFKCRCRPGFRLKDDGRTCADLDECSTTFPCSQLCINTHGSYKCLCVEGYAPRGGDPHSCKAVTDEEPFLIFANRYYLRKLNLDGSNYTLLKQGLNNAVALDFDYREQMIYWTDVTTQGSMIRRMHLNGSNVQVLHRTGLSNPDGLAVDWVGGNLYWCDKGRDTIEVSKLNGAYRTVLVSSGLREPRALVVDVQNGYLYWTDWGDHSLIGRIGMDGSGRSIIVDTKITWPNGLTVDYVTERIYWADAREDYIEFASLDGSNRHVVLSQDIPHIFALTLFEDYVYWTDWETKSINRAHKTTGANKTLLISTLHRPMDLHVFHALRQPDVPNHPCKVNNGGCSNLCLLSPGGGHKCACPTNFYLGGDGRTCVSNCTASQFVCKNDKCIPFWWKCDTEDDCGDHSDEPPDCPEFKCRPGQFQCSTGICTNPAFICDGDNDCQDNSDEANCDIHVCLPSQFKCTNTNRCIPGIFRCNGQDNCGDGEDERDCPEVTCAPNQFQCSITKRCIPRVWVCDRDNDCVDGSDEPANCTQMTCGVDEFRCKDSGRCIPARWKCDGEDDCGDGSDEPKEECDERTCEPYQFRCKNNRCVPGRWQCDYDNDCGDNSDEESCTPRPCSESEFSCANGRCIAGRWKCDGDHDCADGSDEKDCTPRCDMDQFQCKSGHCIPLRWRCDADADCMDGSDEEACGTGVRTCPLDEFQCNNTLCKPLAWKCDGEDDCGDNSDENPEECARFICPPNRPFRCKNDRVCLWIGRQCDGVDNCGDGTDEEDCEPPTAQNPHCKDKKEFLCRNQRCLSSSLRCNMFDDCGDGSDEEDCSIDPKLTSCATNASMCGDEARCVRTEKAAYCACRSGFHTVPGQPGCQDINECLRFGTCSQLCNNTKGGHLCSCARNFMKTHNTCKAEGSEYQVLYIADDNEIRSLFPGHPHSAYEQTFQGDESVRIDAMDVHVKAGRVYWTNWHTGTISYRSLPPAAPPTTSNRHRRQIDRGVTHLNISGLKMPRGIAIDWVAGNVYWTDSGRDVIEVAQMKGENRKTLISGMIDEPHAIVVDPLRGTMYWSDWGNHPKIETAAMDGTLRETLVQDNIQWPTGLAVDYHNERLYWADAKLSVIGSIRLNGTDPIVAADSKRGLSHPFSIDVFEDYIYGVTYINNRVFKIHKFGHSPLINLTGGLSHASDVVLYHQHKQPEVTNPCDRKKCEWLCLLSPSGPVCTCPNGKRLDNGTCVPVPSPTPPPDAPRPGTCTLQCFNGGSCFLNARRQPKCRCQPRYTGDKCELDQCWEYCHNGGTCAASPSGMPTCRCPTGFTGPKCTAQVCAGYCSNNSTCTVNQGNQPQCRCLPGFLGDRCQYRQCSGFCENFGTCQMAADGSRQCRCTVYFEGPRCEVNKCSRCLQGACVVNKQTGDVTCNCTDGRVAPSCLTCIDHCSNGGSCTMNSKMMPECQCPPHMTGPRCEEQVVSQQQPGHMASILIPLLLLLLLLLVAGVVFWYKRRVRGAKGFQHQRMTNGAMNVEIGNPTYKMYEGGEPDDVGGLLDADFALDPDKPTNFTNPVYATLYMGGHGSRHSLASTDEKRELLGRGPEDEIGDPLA", "assay": "RAP-GST competition of CTGF binding on BMS-2 cells", "design": "species or system murine", "experimental": "In a further study, receptor associated protein (RAP), a known inhibitor of ligand binding to LRP, was prepared. Plasmid DNA containing the human RAP cDNA sequence was obtained (ATCC as the I.M.A.G.E. Consortium Clone ID 511113, Lennon et al., 1996, Genomics, 33:151-152). The RAP sequence was sub-cloned into the pGEX4T-1 vector (Pharmacia) for the synthesis of a RAP-GST (glutathione S-transferase) fusion protein in E. coli. The fusion protein was purified over glutathione-Sepharose as described (Warshawsky et al., 1993, J. Biol. Chem., 268:22046-22054), and tested as a competitor of CTGF binding."}, "[3]": {"system": "MG63 cells", "assay": "CTGF production and accumulation in medium and cell layer (Western blot, densitometry)", "assay_type": "cell-based, human", "conditions": "RAP 10 nM", "experimental": "To determine whether LRP was involved in the mediation of a CTGF signaling event, experiments were conducted to study the effect of anti-LRP antibodies on CTGF production and accumulation. MG63 cells were plated at 2.5×10^4 cells/cm^2 in 24 well plates in MEM with 10% FBS. The following day, the medium was changed to MEM with 0.5% FBS. Additionally, half of the wells were supplemented with 20 ng/ml TGF-β2. Some of the cells also received either anti-LRP antibodies (American Diagnostic) (3 ug/ml 3402 and 1 ug/ml 3501) or RAP (10 nM). At 15, 23, and 47 hours after exposure to these additives, medium and cell layers were harvested.\nThe harvested media was then incubated with heparin-SEPHAROSE for 4 hours. The beads were washed twice with RIPA buffer and the bound fraction was eluted with SDS-PAGE sample buffer. The cell layer was washed twice with PBS, then extracted for 15 min at 4° C. with RIPA buffer. The cell layer was collected by scraping, and centrifuged to remove the insoluble material. The soluble fraction was used for SDS-PAGE analysis. Both medium and cell layer samples were run non-reduced on 12% SDS-PAGE, then blotted to nitrocellulose. The nitrocellulose membranes were incubated with a rabbit polyclonal antibody made against rhCTGF (using procedures well known in the art), the data of which is shown in FIGS. 22A and 22B."}, "[4]": {"target": "T2, high Mr CTGF binding protein on BMS-2 cells (Mus musculus, UniProt Q91ZX7)", "T2 construct": "endogenous in cells; host or cells: BMS2 (BMS-2) murine bone marrow stromal cells", "T2 sequence (Q91ZX7 20-4545)": "as above", "assay": "Binding analysis of 125I-CTGF competition with LRP ligands on BMS-2 cells", "design": "species or system murine", "conditions": "0.1 nM 125I-CTGF", "experimental": "BMS-2 cells were incubated with 0.1 nM ^125I-CTGF in the presence of unlabeled CTGF, recombinant human apoE, low density lipoprotein purified from human plasma (LDL), or lipoprotein lipase purified from bovine milk (LpL)."}, "[5]": {"target": "T1, LRP", "assay": "Competitive binding and cross-linking of LRP ligands with 125I-CTGF on BMS-2 cells", "design": "species or system murine", "conditions": "50 pM 125I-CTGF; CTGF 21.5 nM, BP5 201-218 50 μg/ml, LF 25 μg/ml, apo E 20 μg/ml, LpL 20 μg/ml", "experimental": "To examine whether ligands known to bind to LRP inhibit CTGF binding, BMS-2 cells were labeled with 50 pM ^125I-CTGF in the presence or absence of unlabeled ligand (CTGF: 21.5 nM; BP5^201-218: 50 μg/ml or […] (Campbell and Andress, 1997, Am. J. Physiol., 273:E1005-13); lactoferrin (LF): 25 μg/ml or 250 nM; apo E: 20 μg/ml or 574 nM; lipoprotein lipase (LpL): 20 μg/ml or 400 nM). The cells were cross-linked and the receptor complexes were solubilized, processed on SDS-PAGE and visualized by autoradiography."}, "[6]": {"system": "MG63 cells", "assay": "Internalization and degradation kinetics of 125I-CTGF with heparin or lactoferrin", "assay_type": "cell-based, human", "conditions": "3 μg/ml heparin or lactoferrin", "experimental": "Experiments were performed in which the internalization and degradation kinetics of CTGF were followed in the presence or absence of a known LRP ligand, lactoferrin. Kinetics were followed in the presence or absence of 3 μg/ml heparin or lactoferrin. ^125I-CTGF was bound to MG63 cells at 4° C. and free CTGF was removed by washing the cells. Fresh medium was placed on the cells, and the cells were transferred to 37° C. At each time point, the medium was removed and TCA precipitated. Degraded ^125I-CTGF was quantified by measuring the cpm in the non-precipitable fraction (see FIG. 17). In parallel experiments, ^125I-CTGF was bound to MG63 cells at 4° C. and free CTGF was removed by washing the cells. Fresh medium was placed on the cells, and they were transferred to 37° C. At each time point, the cell layer was removed by extensive trypsinization at 4° C. The cells were centrifuged and the cpm associated with the pellet, the internalized fraction, was determined (see FIG. 18)."}},
  "data": [
    {"compound": "CC(C)C[C@H](NC(=O)[C@@H](NC(=O)N[C@@H](Cc1ccccc1)C(=O)O)[C@@H]1CCN=C(N)N1)C(=O)N[C@H](C=O)Cc1ccccc1", "note": "[Chymostatin]", "values": [
      {"measurement": "degraded/internalized 125I-CTGF with additive", "setting": "[1]", "value": "no appreciable affect"}
    ]},
    {"compound": "CCN(CC)CCCC(C)Nc1ccnc2cc(Cl)ccc12", "note": "(centres unmarked) [chloroquin, Chloroquin]", "values": [
      {"measurement": "rhCTGF remaining internalized, TGF-β treated cultures", "setting": "[1]; chloroquin treated samples, TGF-β treated cultures", "value": "~400", "unit": "fmol"},
      {"measurement": "rhCTGF remaining internalized, control cultures", "setting": "[1]; chloroquin treated samples, control cultures", "value": "About 1000 fmoles"},
      {"measurement": "secretion of CTGF degradation products into the medium", "setting": "[1]; in the presence of chloroquin", "value": "not secreted into the medium"}
    ]},
    {"compound": "GST: GST protein by itself, control for RAP-GST", "values": [
      {"measurement": "competition for CTGF binding to LRP", "setting": "[2]", "value": "no competitive activity"}
    ]},
    {"compound": "RAP-GST: human receptor associated protein as glutathione S-transferase fusion protein made in E. coli; inhibitor of ligand binding to LRP", "values": [
      {"measurement": "competition for CTGF binding to LRP", "setting": "[2]", "value": "able to compete"},
      {"measurement": "degraded/internalized 125I-CTGF with additive", "setting": "[1]", "value": "to background levels"},
      {"measurement": "CTGF levels in cell layer, RAP treated samples", "setting": "[3]", "value": "slightly increased levels"},
      {"measurement": "CTGF medium concentration at 15 and 23 hours", "setting": "[3]", "value": "an increase"},
      {"measurement": "CTGF medium levels at 47 hours", "setting": "[3]", "value": "returned to basal levels"}
    ]},
    {"compound": "apolipoprotein E [apoE, reference compound]", "values": [
      {"measurement": "competition with 125I-CTGF", "setting": "[4]", "value": "competed"},
      {"measurement": "competing the binding to the LRP receptor", "setting": "[5]", "value": "very effective in competing"}
    ]},
    {"compound": "heparin [reference compound]", "values": [
      {"measurement": "rate of degradation of CTGF", "setting": "[6]", "value": "reduced the rate"},
      {"measurement": "rate of internalization of CTGF", "setting": "[6]", "value": "reduced the rate"}
    ]}
  ]
}
